According to PMC11812085, “Structural Dynamics of the Ubiquitin Specific Protease USP30 in Complex with a Cyanopyrrolidine-Containing Covalent Inhibitor” (Journal of Proteome Research, 2025):

Target: T1, USP30 (ubiquitin specific protease 30) (Homo sapiens, UniProt Q70CQ3, DEL179-216/DEL288-305)
T1 construct: residues 64-502Δ179-216 and 288-305
T1 sequence (Q70CQ3 with tags, fused parts or gaps DEL179-216/DEL288-305): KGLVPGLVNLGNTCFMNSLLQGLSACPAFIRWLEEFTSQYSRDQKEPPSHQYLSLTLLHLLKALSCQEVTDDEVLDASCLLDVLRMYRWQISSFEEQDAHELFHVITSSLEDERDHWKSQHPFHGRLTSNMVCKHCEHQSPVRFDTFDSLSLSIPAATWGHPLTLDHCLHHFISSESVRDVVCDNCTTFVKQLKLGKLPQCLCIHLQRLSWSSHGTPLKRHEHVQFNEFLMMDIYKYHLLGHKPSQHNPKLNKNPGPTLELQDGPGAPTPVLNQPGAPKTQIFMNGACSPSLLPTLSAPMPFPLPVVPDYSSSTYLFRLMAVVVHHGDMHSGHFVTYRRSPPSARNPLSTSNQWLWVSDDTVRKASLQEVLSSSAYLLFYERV
Experiment: RapidFire MS of covalent complex and HDX-MS on recombinant USP30; KI from kinact/KI kinetics with Ub-rhodamine (IC50 […] after […] min preincubation; […] in SH-SY5Y lysate ABPP)
Type: biochemical

KI (inactivation): ~0.35 µM
SMILES: C[C@@H]1C[C@@H](NC(=O)c2ncc(-c3cccc(C#N)c3)o2)CN1C#N [USP30-I-1]
